For series [1] the following is noted: cited from earlier work.
On the set-up of series [2]: method as in earlier work. The settings on record: 5 mM sodium taurocholate and […] lecithin in pH 6.8 phosphate buffer; cited from earlier work.
For series [3] the following is noted: cited from earlier work. The source holds these as a separate data set.
The nature of series [4]: Ketoconazole solubility by pH adjustment with HCl (pH-solubility profile). Format: physicochemical. Particulars: 25 °C. The method, then:
Multiple vials were prepared using different concentration of HCl solutions (0.001M to 1M) so that different pH values could be attained, and, when needed, more amount of free base was added to maintain excess solid in the vials. […] Additional HCl solution and excess ketoconazole were added to the suspension in vial and shaken for another pH point, and the process was repeated until enough points on the pH scale were obtained. More than one suspension in different vials were used to generate a complete profile.

Series [5] is described as follows: Solubility in buffered/non-buffered media. The method, then:
Cocrystal solubilities were determined at pH 1 solution (0.1 M HCl), pH 2 HCl buffer), pH 5 acetate buffer and pH 8 phosphate buffer. Buffers were prepared according to the United States Pharmacopeia (USP) procedures. […] Aliquots were filtered by 0.45-micron PVDF filter and analyzed by HPLC. The solid phase was analyzed by Raman spectroscopy.

Series [6] is described as follows: Ketoconazole solubility with fumaric/succinic acid and 1:1 physical mixtures with coformers. The class given is physicochemical. The settings on record: 1:1 ketoconazole-fumaric acid mixture, 25 °C.
Method: A series of solutions with different concentrations of acids were prepared and 3 mL quantities of these solutions were distributed in separate glass vials. […] Aliquots of suspensions (0.5-0.7 mL each) were, however, withdrawn from each vial after 4, 24 and 96 h of shaking for analysis of drug concentration by HPLC according to the method described earlier. For the analysis of solid phase, contents of the vials were transferred to 3-mL Eppendorf tubes and centrifuged using Beckman GS 6R centrifuge at 2000 RPM for 5 min. After centrifugation, the supernatants were removed and solid contents were dried in a vacuum oven at 50 °C, which were then analyzed by DSC and Raman spectroscopy.
In this study, different quantities of the mixtures (12 mg to 350 mg) were added to different 20 mL glass vials, and then 5 mL of water was added to each vial. Thus, the volume of water in each vial remained the same and only the amount of material added differed. […] Samples were withdrawn from each vial at 4, 24 and 96 h to measure drug concentration, as described earlier. The solid phase of the vials was analyzed using Raman spectroscopy to determine the identity of equilibrium species. From some of the vials, solid contents were separated by centrifugation, dried in a vacuum oven, and then analyzed by DSC.
Series [7] in a line: Intrinsic dissolution rate. Format: physicochemical. Particulars: 25 °C. Further details: key: -: Extremely low dissolution rate (practically zero) that could not be calculated with accuracy. The method, then:
For each determination, 100 mg of powder was compressed into pellet by Carver press at 1 ton pressure for 10 seconds. The apparatus with the exposed surface of the material was immersed into 250 mL of dissolution medium and rotated at 200 RPM. pH of dissolution media during the intrinsic dissolution testing were maintained by two different methods: in one case, unbuffered media were used where either 0.1 M HCl or 0.1 M NaOH were added to keep pH constant at 3, 4 or 5 (±0.15), and in the second case, pH 3, 4 and 5 phthalate buffers prepared according to the USP were used as dissolution media to keep pH constant. Two mL of aliquot was withdrawn at each of 5, 15, 30, 60, 90 and 120 min time points, filtered by 0.45-micron PVDF filter, and analyzed by HPLC for drug concentration.

The conditions of series [8]: average of two.
Method: Essentially, in the present investigation, about 0.5 mL of buffer was added to 200 mg of powder in a small vial and mixed by vortexing, and then pH was recorded when an equilibrium was reached after 5-10 min of mixing.
For series [9] the following is noted: excess cocrystal in water, 25 °C.
[10] abbreviates: initial pH 1.1 (0.1 M HCl), 25 °C.
[11] abbreviates: initial pH 2.1 HCl/KCl buffer, 25 °C.
The mark [12] stands for this setting: initial pH 5.0 acetate buffer, 25 °C.
Where [13] appears, read: initial pH 7.9 phosphate buffer, 25 °C.
[14] abbreviates: buffers, pH 3 phthalate, 0.5 cm^2.
[15] abbreviates: buffers, pH 4 phthalate, 0.5 cm^2.
The mark [16] stands for this setting: unbuffered media, pH 3 kept constant with HCl or NaOH, 0.5 cm^2.
Where [17] appears, read: unbuffered media, pH 4 kept constant with HCl or NaOH, 0.5 cm^2.
[18] abbreviates: pH 3 phthalate buffer, initial (bulk) pH 2.93.
Where [19] appears, read: pH 5 neutralized phthalate buffer, initial (bulk) pH 4.97.
Setting [20] is: pH 7 phosphate buffer, initial (bulk) pH 6.97.

≈ marks a conversion by molar mass, not a printed value. Where two headings read alike, the source gives them in different places. Marks after values point to notes of the source that are not given here.

In the case of `CC(=O)Nc1nc2c(Oc3cc(-c4ccc(C(F)(F)F)cc4)ncn3)cccc2s1` [AMG 517], in series [1], the pKa was 0.68. For the same compound, in series [2], the “Solubility in FaSIF” value is 5 µg/mL (≈ 11.6 µM).

With `CC(C)(C)C(=O)OCOP(=O)(COCCn1cnc2c(N)ncnc21)OCOC(=O)C(C)(C)C` [adefovir dipivoxil], in series [3], the Solubility in water was 790 µM and the “pH of saturated solutions” value is given as 6.7.

With `CCOc1ccccc1C(N)=O` [ethenzamide], the Solubility in water in series [3] was 0.80 to 0.85 µg/mL.

As for `O=C(O)/C=C/C(=O)O` [fumaric acid], in [1], the “pKa, first ionization” value is reported as 2.74 and the “pKa, second ionization” value was 4.17.

With `CC(=O)N1CCN(c2ccc(OC[C@H]3CO[C@](Cn4ccnc4)(c4ccc(Cl)cc4Cl)O3)cc2)CC1.Cl.Cl` [ketoconazole dihydrochloride salt, ketoconazole dihydrochloride], in series [3], the “Solubility (in words)” value is on record as “very high solubility”.

For `CC(=O)N1CCN(c2ccc(OCC3COC(Cn4ccnc4)(c4ccc(Cl)cc4Cl)O3)cc2)CC1` (stereo not shown) [ketoconazole], the solubility in series [4] (pH of suspension 3.35, pH lowered using HCl, listed as ketoconazole base) was 5429 µg/mL (≈ 10200 µM); in [4] (suspension in distilled water, pH adjusted with HCl, pH 3.1, aqueous buffer, thermodynamic from solid, pH 3.1, pH adjusted with HCl, read-out: Highest solubility measured), 148000 µg/mL (≈ 279000 µM); in series [4] (suspension in distilled water, pH adjusted with HCl, pH 3.1, aqueous buffer, thermodynamic from solid, pH of suspension 3.1, pH lowered using HCl, read-out: Solubility) it was 148000 µg/mL (≈ 279000 µM); in series [4] (suspension in distilled water, pH adjusted with HCl, pH 3.35, aqueous buffer, thermodynamic from solid, pH of suspension 3.35, pH lowered using HCl, read-out: Solubility) it was 5460 µg/mL (≈ 10300 µM); in [4] (suspension in distilled water, pH adjusted with HCl, pH 3.37, aqueous buffer, thermodynamic from solid, pH of suspension 3.37, pH lowered using HCl, read-out: Solubility), 7100 µg/mL (≈ 13400 µM); in series [4] (suspension in distilled water, pH adjusted with HCl, pH 3.58, aqueous buffer, thermodynamic from solid, pH of suspension 3.58, pH lowered using HCl, read-out: Solubility) it was 3420 µg/mL (≈ 6440 µM). The solubility in series [4] (suspension in distilled water, pH adjusted with HCl, pH 3.81, aqueous buffer, thermodynamic from solid, pH of suspension 3.81, pH lowered using HCl, read-out: Solubility) was found to be 1930 µg/mL (≈ 3630 µM); in series [4] (suspension in distilled water, pH adjusted with HCl, pH 4.28, aqueous buffer, thermodynamic from solid, pH of suspension 4.28, pH lowered using HCl, read-out: Solubility), 729 µg/mL (≈ 1370 µM); in series [4] (suspension in distilled water, pH adjusted with HCl, pH 4.48, aqueous buffer, thermodynamic from solid, pH of suspension 4.48, pH lowered using HCl, read-out: Solubility), 345 µg/mL (≈ 649 µM); in [4] (suspension in distilled water, pH adjusted with HCl, pH 4.56, aqueous buffer, thermodynamic from solid, pH of suspension 4.56, pH lowered using HCl, read-out: Solubility) it was 354 µg/mL (≈ 666 µM); in series [4] (suspension in distilled water, pH adjusted with HCl, pH 4.95, aqueous buffer, thermodynamic from solid, pH of suspension 4.95, pH lowered using HCl, read-out: Solubility) it was 178 µg/mL (≈ 335 µM); in series [4] (suspension in distilled water, pH adjusted with HCl, pH 4.99, aqueous buffer, thermodynamic from solid, pH of suspension 4.99, pH lowered using HCl, read-out: Solubility), 175 µg/mL (≈ 329 µM). Besides, the solubility in series [4] (suspension in distilled water, pH adjusted with HCl, pH 7.12, aqueous buffer, thermodynamic from solid, pH of suspension 7.12, pH lowered using HCl, read-out: Solubility) amounted to 5 µg/mL (≈ 9.41 µM); in [4] (suspension in distilled water, pH adjusted with HCl, pH 7.23, aqueous buffer, thermodynamic from solid, pH of suspension 7.23, pH lowered using HCl, read-out: Solubility), 4 µg/mL (≈ 7.53 µM); in series [4] (suspension in distilled water, pH adjusted with HCl, pH 3.67, pH of suspension 3.67, pH lowered using HCl, read-out: Solubility), 3030 µg/mL (≈ 5700 µM); in series [4] (suspension in distilled water, pH adjusted with HCl, pH 3.71, pH of suspension 3.71, pH lowered using HCl, read-out: Solubility) it was 2780 µg/mL (≈ 5230 µM); in series [4] (suspension in distilled water, pH adjusted with HCl, pH 7.27, pH of suspension 7.27, pH lowered using HCl, read-out: Solubility), 3 µg/mL (≈ 5.65 µM); in series [4] (suspension in distilled water, pH adjusted with HCl, pH 7.72, pH of suspension 7.72, pH lowered using HCl, read-out: Solubility), 2 µg/mL (≈ 3.76 µM). The solubility in [4] (suspension in distilled water, pH adjusted with HCl, pH 7.92, pH of suspension 7.92, pH lowered using HCl, read-out: Solubility) is 3 µg/mL (≈ 5.65 µM); in series [4] (suspension in distilled water, pH adjusted with HCl, pH 8.49, pH of suspension 8.49, pH lowered using HCl, read-out: Solubility), 2 µg/mL (≈ 3.76 µM); in [4] (suspension in distilled water, pH adjusted with HCl, pH higher than 8, read-out: Intrinsic solubility of the free base (nonprotonated species)), around 2 µg/mL (≈ 3.76 µM); in series [5] (0.1 M HCl, 25 °C, pH 1.1, simulated gastric fluid, thermodynamic from solid) it was around 27000 µg/mL (≈ 50800 µM); in [5] (HCl/KCl buffer, 25 °C, pH 2.1, simulated gastric fluid, thermodynamic from solid), around 3400 µg/mL (≈ 6400 µM); in series [5] (acetate buffer, 25 °C, pH 5, aqueous buffer, thermodynamic from solid), 130 µg/mL (≈ 245 µM). The compound further had a solubility in series [5] (phosphate buffer, pH 7.9) of 1 µg/mL (≈ 1.88 µM). Moreover, the pH after equilibration in series [5] (setting [10]) is recorded as ~2.9 ^*; in series [5] (setting [11]), ~3.6 ^*; in series [5] (setting [12]), 4.95; in series [5] (setting [13]), 7.82±0.01. The solubility at 96 h in series [6] (equilibrated 96 h, pH~3.7) was around 3000 µg/mL (≈ 5650 µM). The solubility at 4 h in series [6] (water, thermodynamic from solid, equilibrated 4 h, no conversion to cocrystal) was around 7000 µg/mL (≈ 13200 µM). Besides, the Dissolution rate constant in series [7] (setting [14]) is 108 μg.min^-1.cm^-2; in [7] (setting [15]) it was 45 μg.min^-1.cm^-2; in series [7] (buffers, pH 5 phthalate), “- ^**”; in series [7] (setting [16]) it was 106 μg.min^-1.cm^-2; in series [7] (setting [17]), 16 μg.min^-1.cm^-2; in series [7] (unbuffered media, pH 5 kept constant with HCl or NaOH), “- ^**”. The entries for the “pH h=0 (slurry pH)” value in [8] (setting [18]), in series [8] (setting [19]) and in [8] (setting [20]) were 4.17, 5.00 and 7.05, respectively.

Consider `Nc1nnc(-c2cccc(Cl)c2Cl)c(N)n1` [lamotrigine], for which the Solubility in water in series [3] was 154 µg/mL; in [3] (pH of ~5.5, cocrystals at 1:1 ratios), 280 µg/mL. The “pH of the aqueous slurries during the determination of solubility” value in [3] is given as 6.8.

For the compound `O=C(O)CCC(=O)O` [succinic acid], in series [1], the “pKa, first ionization” value was 3.93 and the “pKa, second ionization” value was 5.30.

As to ketoconazole-fumaric acid cocrystal, the pH after equilibration is given as 2.03± 0.01 in series [5] (setting [10]), 2.89 ± 0.02 in [5] (setting [11]), 4.31 ± 0.02 in series [5] (setting [12]) and 7.17 ± 0.01 in series [5] (setting [13]). The solubility worked out at 21540 ± 550 µg/mL in [5] (initial pH 1.1 (0.1 M HCl), 25 °C, average of three determinations); 3390 ± 20 µg/mL in [5] (initial pH 2.1 HCl/KCl buffer, 25 °C, average of three determinations); 600 ± 20 µg/mL in series [5] (initial pH 5.0 acetate buffer, 25 °C, average of three determinations); 3 ± 2 µg/mL in series [5] (initial pH 7.9 phosphate buffer, 25 °C, average of three determinations). The Dissolution rate constant is listed as 108 μg.min^-1.cm^-2 in [7] (setting [14]); 71 μg.min^-1.cm^-2 in series [7] (setting [15]); 51 μg.min^-1.cm^-2 in [7] (buffers, pH 5 phthalate, 0.5 cm^2); 164 μg.min^-1.cm^-2 in series [7] (setting [16]); 124 μg.min^-1.cm^-2 in [7] (setting [17]); 93 μg.min^-1.cm^-2 in series [7] (unbuffered media, pH 5 kept constant with HCl or NaOH, 0.5 cm^2). Besides, in series [9], the “pH of saturated solution in water” value was 4.1. In addition, the “Solubility in water (as ketoconazole equivalents)” value in series [9] (saturated solution pH 4.1 (fumaric) / 4.2 (succinic)) was found to be 2600 µg/mL. Further, the “pH h=0 (slurry pH)” value in series [8] (setting [18]) is given as 3.13; in [8] (pH 4 phthalate buffer, initial (bulk) pH 3.96), 4.08; in [8] (setting [19]), 4.23; in series [8] (setting [20]) it was 4.53.

Broadly, the pKa is the pH at which an ionisable group is half protonated. A word on the solubility: it is how much of the substance goes into solution per volume.

The values above are taken from paper PMC8957230 (ADMET & DMPK, 2019).
